Results published in patent US12295970B2, “Imidazoquinoline compounds and prodrugs thereof” (UNIVERSITY OF KANSAS, priority 2019, dated 2025).

Legend:
[1] = target: T1, hTLR7 (Homo sapiens, UniProt Q9NYK1); experiment: SEAP reporter assay for hTLR-7 activity (HEK-Blue hTLR7 cells); type: cell-based
T1 construct: host or cells: HEK293 (HEK-Blue hTLR7)
T1 sequence (Q9NYK1 27-1049): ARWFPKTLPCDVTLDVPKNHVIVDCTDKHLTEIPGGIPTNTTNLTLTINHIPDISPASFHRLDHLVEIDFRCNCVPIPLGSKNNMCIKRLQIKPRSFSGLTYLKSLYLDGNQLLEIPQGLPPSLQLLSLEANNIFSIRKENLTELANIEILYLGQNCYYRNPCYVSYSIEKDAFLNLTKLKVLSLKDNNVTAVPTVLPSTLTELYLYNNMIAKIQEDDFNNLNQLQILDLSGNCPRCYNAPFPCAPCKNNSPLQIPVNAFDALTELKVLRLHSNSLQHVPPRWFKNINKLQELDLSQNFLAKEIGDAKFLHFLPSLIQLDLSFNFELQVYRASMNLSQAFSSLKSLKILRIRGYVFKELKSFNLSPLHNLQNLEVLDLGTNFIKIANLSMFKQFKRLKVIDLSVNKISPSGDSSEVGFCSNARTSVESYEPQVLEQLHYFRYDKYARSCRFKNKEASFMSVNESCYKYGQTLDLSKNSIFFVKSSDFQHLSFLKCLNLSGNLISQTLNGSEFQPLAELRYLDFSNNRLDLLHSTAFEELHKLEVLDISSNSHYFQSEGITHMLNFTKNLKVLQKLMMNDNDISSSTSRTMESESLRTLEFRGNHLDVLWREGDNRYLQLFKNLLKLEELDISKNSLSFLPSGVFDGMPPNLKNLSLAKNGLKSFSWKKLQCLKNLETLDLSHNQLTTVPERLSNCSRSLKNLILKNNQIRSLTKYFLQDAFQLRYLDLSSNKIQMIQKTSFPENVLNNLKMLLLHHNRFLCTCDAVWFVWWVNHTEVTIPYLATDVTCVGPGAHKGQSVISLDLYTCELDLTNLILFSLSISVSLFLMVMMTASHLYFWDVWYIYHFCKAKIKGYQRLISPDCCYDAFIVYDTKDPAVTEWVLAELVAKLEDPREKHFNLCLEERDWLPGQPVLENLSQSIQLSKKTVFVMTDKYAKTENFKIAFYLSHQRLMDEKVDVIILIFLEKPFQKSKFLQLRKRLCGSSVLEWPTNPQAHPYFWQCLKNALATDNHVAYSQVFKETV
Experimental: TLR activation induces NF-κB production and subsequent SEAP secretion, which is measured using HEK-Detection media (InvivoGen) containing a colorimetric substrate for SEAP (UV-Vis, 637 nm).
The experiments followed manufacturer protocol as follows: SEAP levels were measured via absorbance at 637 nm using HEK-Blue Detection cell culture medium (InvivoGen), which contains a SEAP-specific colorimetric substrate. Compound stock solutions were first diluted in sterile DMSO at a concentration of 10 mM. Lower concentrations were prepared by serial dilution of the initial 10 mM stock samples into sterile DMSO and these solutions (22 μL) were subsequently diluted into sterile H2O (198 μL) using a BioTek Precision XS pipetting system. HEK-Blue hTLR7, HEK-Blue hTLR8, Null 1−k, and Null 1 cell suspensions in sterile HEK-Blue Detection medium were prepared at a density of 220,000 cells per mL. Clear bottom, 96-well tissue culture treated plates (Corning) were seeded with hTLR7 and Null 1−k or hTLR8 and Null 1 cell suspensions (180 μL/well), after which 20 μL of the various sample concentrations in 10% v/v DMSO/H2O were added (20 μL) in quadruplicate wells to yield the desired testing concentration in 1% v/v DMSO cell suspension. Plates were incubated at 37° C. and 5% CO2 in the dark. Absorbance measurements were taken at 637 nm at 12 hours, 4 replicates per concentration point, per cell line (hTLR7, hTLR8, Null 1−k, Null 1). Three independent measurements on different days were performed for each analog.
Corresponding well absorbance values for each concentration tested were averaged with respect to days tested, and the average relative NF-κB induction (UV-Vis, 637 nm) of the null cell lines (Null 1-k or Null 1) were subtracted from the respective average TLR expressing cell line (hTLR7 or hTLR8) absorbance averages. […] The three independent, normalized averages for each analog were then pooled, and the data was fit using the Hill-Slope model (GraphPad Prism v7.0) using the non-linear fit from the [Agonist] vs. response—Variable Slope (four parameters) with a hill slope constrained to less than 3.

[2] = tested on: canine peripheral blood mononuclear cells (cPBMCs); experiment: Cytokine production in canine PBMCs by ELISA (Example 2); type: cell-based; details: ± SD, 20 μM, 29 hours, ELISA, triplicate
Experimental: The imidazoquinolines were further screened for cytokine production in canine peripheral blood mononuclear cells (cPBMCs). […] TNFα and IL-12 were chosen as they are typically seen in a Th-1 cytokine response.
Peripheral blood from a healthy canine donor was obtained with appropriate informed consent of the owner and under approved institutional guidelines. Blood (8 mL per tube) was drawn via sterile venipuncture into a BD Vacutainer cell preparation tube containing sodium heparin (BD Biosciences). PBMCs were isolated within one hour following procurement by density gradient centrifugation according to the manufacturer protocol and resuspended to 2.22×10^6 cells/mL in sterile RPMI 1640 medium with L-glutamine (Gibco) supplemented with 100 U/mL penicillin, 100 μg/mL streptomycin (Corning) and 10% (v/v) heat-inactivated Fetalgro (RMBIO). Corning 3917, 96-well tissue culture treated plates were seeded with the PBMC suspension (180 μL/well), 20 μL of the serially diluted TLR agonists were added in triplicate to yield the desired concentrations in a 1% (v/v) DMSO cell suspension. Cells were incubated at 37° C. in 5% CO2 for 9 hours (FIGS. 3A-3D) or 29 hours (Table 2) after which supernatants were removed and frozen at −80° C. Cytokine secretion levels were measured by ELISA (Duoset, R&D Systems) according to the manufacturer protocol. Samples and standards (n=3) were thawed and plated onto a Maxisorp flat-bottom, 384-well plate (Thermo Scientific) using a BioTek Precision XS pipetting system. Cytokine concentrations were determined by a hyperbolic or four-parameter logistic non-linear regression of the recombinant standards and subsequent interpolation using Graphpad Prism 7.0.

Compound: CCOCc1nc2c(N)nc3ccccc3c2n1CC(C)(C)O [Compound 2, resiquimod, reference compound]
- agonist for TLR7 receptor (in words) [1]: agonists
- Cytokine IFNg [2]: 26 ± 7 pg/mL
- Cytokine IL-2 [2]: 120 ± 12 pg/mL
- Cytokine IL-6 [2]: 380 ± 80 pg/mL
- Cytokine IL-10 [2]: 21 ± 2 pg/mL
- Cytokine IL-12 [2]: 2800 ± 520 pg/mL
- Cytokine TNFa [2]: 190 ± 30 pg/mL
